Experimental data: ChEMBL document CHEMBL1770053, “Design of novel and potent cPLA2α inhibitors containing an α-methyl-2-ketothiazole as a metabolically stable serine trap” (Bioorg Med Chem Lett, 2011)

How the values were obtained:
[1] = Inhibition of recombinant cytosolic PLA2alpha assessed as inhibition of cleavage of soluble fluorogenic substrate
[2] = Inhibition of cytosolic PLA2alpha in human differentiated HL60 cells assessed as inhibition of A23187-induced [3H]-arachidonate release; type: cell-based; details: HL-60
[3] = Half life in rat plasma at 2 mg/kg, iv; type: ADME, organism-based; design: dose 2 mg/kg, route intravenous
Hepatocyte = test: Intrinsic clearance in rat hepatocytes; type: ADME, cell-based, Liver
[4] = Clearance in rat at 2 mg/kg, iv; type: ADME, organism-based; design: dose 2 mg/kg, route intravenous; details: in vivo
[5] = Volume of distribution at steady state in rat at 2 mg/kg, iv; type: ADME, organism-based; design: dose 2 mg/kg, route intravenous; details: in vivo, read-out: Vdss

IC50 [1] [nM]	IC50 [2] [nM]	half-life [3] [h]	CL (Hepatocyte) [µL/min]	clearance [4] [mL/min/kg]	Vd [5] [L/kg]	Compound
1000	> 10000	–	–	–	–	O=C(COc1ccc(SCCCCCc2ccccc2)cc1)c1nccs1
> 10000	–	–	–	–	–	O=C(COc1ccc(SCCCCCc2ccccc2)cc1)c1ncc[nH]1
> 10000	–	–	–	–	–	Cn1ccnc1C(=O)COc1ccc(SCCCCCc2ccccc2)cc1
> 10000	–	–	–	–	–	Cn1c(C(=O)COc2ccc(SCCCCCc3ccccc3)cc2)nc2ccccc21
1000	–	–	–	–	–	O=C(COc1ccc(SCCCCCc2ccccc2)cc1)c1nc2ccccc2s1
2700	3700	–	–	–	–	O=C(O)c1ccc2nc(C(=O)COc3ccc(SCCCCCc4ccccc4)cc3)[nH]c2c1
> 10000	> 10000	–	–	–	–	O=C(O)COc1ccc2nc(C(=O)COc3ccc(SCCCCCc4ccccc4)cc3)[nH]c2c1
140	3600	< 0.2	35	> 200	–	O=C(O)c1ccc2oc(C(=O)COc3ccc(SCCCCCc4ccccc4)cc3)nc2c1
80	1600	–	28	–	–	O=C(O)c1ccc2nc(C(=O)COc3ccc(SCCCCCc4ccccc4)cc3)sc2c1
> 10000	–	–	–	–	–	COc1ccc2nc(C(=O)COc3ccc(SCCCCCc4ccccc4)cc3)sc2c1
300	1100	–	11	–	–	Cc1nc(C(=O)COc2ccc(SCCCCCc3ccccc3)cc2)sc1C(=O)O
500	500	–	–	–	–	Cc1nc(C(=O)COc2ccc(SCCCCCc3ccccc3)cc2)sc1CCC(=O)O
4300	3000	–	–	–	–	Cc1nc(C(=O)COc2ccc(SCCCCCc3ccccc3)cc2)sc1/C=C/C(=O)O
80	500	0.2	–	71	0.4	Cc1nc(C(=O)COc2ccc(SCCCCCc3ccccc3)cc2)sc1CCCC(=O)O
2000	6000	–	–	–	–	O=C(O)CCCc1csc(C(=O)COc2ccc(OCCCCCc3ccccc3)cc2)n1
280	1300	–	31	–	–	Cc1nc(C(=O)COc2ccc(SCCCCCc3ccccc3)cc2)sc1CCO
240	1200	–	20	–	–	Cc1nc(C(=O)COc2ccc(OCCCCCc3ccccc3)cc2)sc1CCCC(=O)O
3000	2000	–	–	–	–	Cc1nc(C(=O)COc2ccc(SCc3ccccc3)cc2)sc1CCCC(=O)O
300	200	–	41	–	–	CCCCCCCCCCS(=O)(=O)c1ccc(OCC(=O)c2nc(C)c(CCCC(=O)O)s2)cc1
40	230	–	–	–	–	CCCCCCCCCCSc1ccc(OCC(=O)c2nc(C)c(CCCC(=O)O)s2)cc1
200	700	–	–	–	–	Cc1nc(C(=O)C(C)Oc2ccc(SCCCCCc3ccccc3)cc2)sc1CCCC(=O)O (stereo unspecified)
6700	> 10000	–	–	–	–	Cc1nc(C(=O)C(C)(C)Oc2ccc(SCCCCCc3ccccc3)cc2)sc1CCCC(=O)O
7900	–	–	–	–	–	CCC(Oc1ccc(SCc2ccc(Cl)cc2)cc1)C(=O)c1nc(C)c(CCCC(=O)O)s1 (stereo unspecified)
4400	5600	–	–	–	–	Cc1nc(C(=O)C(Oc2ccc(SCCCCCc3ccccc3)cc2)C(C)C)sc1CCCC(=O)O (stereo unspecified)
3600	3200	–	–	–	–	Cc1nc(C(=O)C(Oc2ccc(SCCCCCc3ccccc3)cc2)c2ccccc2)sc1CCCC(=O)O (stereo unspecified)
700	2000	1.25	10	10.5	0.35	Cc1nc(C(=O)C(C)Oc2ccc(OCCCCCc3ccccc3)cc2)sc1CCCC(=O)O (stereo unspecified)
1500	1500	1.15	–	10.5	0.55	Cc1nc(C(=O)C(C)Oc2ccc(SCc3ccc(Cl)cc3)cc2)sc1CCCC(=O)O (stereo unspecified)
> 1000	–	–	–	–	–	Cc1nc(C(=O)[C@H](C)Oc2ccc(SCCCCCc3ccccc3)cc2)sc1CCCC(=O)O
200	–	–	8	–	–	Cc1nc(C(=O)[C@@H](C)Oc2ccc(SCCCCCc3ccccc3)cc2)sc1CCCC(=O)O
80	1500	–	–	–	–	O=C(COc1ccc(SCCCCCc2ccccc2)cc1)COc1ccc(C(=O)O)cc1
